Where two headings read alike, the source gives them in different places.
What was measured:
EO771 tumors [1] = experiment: Pimonidazole staining, hypoxic fraction of EO771 tumors; format: in vivo, mice
Experimental: (§1) P values were calculated against thigh muscle with two-tailed two-sample t test. FIG. 3B-3C show normalized tissue oxygenation in EO771 (b) or A549 (c) tumor-bearing mice after injection of 2 mg/kg PPV or vehicle saline (readings taken every minute, and curve is average of 5 traces). P value was analyzed by linear mixed model with autoregressive correlation structure at T=30-40 minutes. […] Values are mean area covered by pimonidazole-positive cells evaluated from 20 images per animal+−SEM. P value was calculated with two-tailed two-sample t test. […] Curves represent mean tumor volumes+−SEM. P values were calculated against XRT with two-tailed two-sample t test.
(§2) Bar graphs represent the mean area covered by pimonidazole-positive cells evaluated from 20 images per animal+−standard error of the mean. P value was calculated against control with two-tailed two-sample t test. […] Mean volumes+−SEM. P values were calculated against XRT with two-tailed two-sample t test. *P<0.05; **P<0.01; ***P<0.001; ****P<0.0001; n.s., not significant.
Pimonidazole staining. […] […] […] The hypoxic fraction of each tumor was quantified by thresholding signal at 50% of the maximum signal on control sections. Area covered by pimonidazole-positive cells was evaluated from 20 images per animal and averaged. Error bars represent the standard deviation.

A549 cells = experiment: Seahorse OCR in A549 cells (dose response, IC50, washout); format: cell-based, Human
EO771 tumors [2] = experiment: Tumor growth delay of EO771 tumors with radiation (XRT); format: in vivo, mice; details: for effect of drug before radiation on tumor growth delay (words): orthotopic EO771, 2 mg/kg 30-40 minutes before 5 Gy; for enhancement of tumor growth delay over XRT alone: orthotopic EO771, 2 mg/kg before 5 Gy
Experimental: as §1
FIGS. 4A-4G show tumor growth before and after radiosensitization with PPV. FIG. 4A-4B show in vitro radiation survival assessment of A549 cell line treated with 10 μm PPV in normoxia (FIG. 4A) and anoxia (FIG. 4B). […] Values represent averaged colony counts+−standard deviation. […] Values are mean tumor volumes+−SEM. […] Values are mean tumor volumes+−SEM. FIG. 4E-4F show tumor growth delay. When tumors reached 4-fold volume increase, groups receiving no treatment or PPV only (FIG. 4E); and XRT only or PPV followed by XRT (FIG. 4F), tumor weights were compared. Values are mean tumor weights+−SEM (n=8). P values were calculated with two-tailed two-sample t test. FIG. 4G are related to FIG. 4E-4F tumor growth delay. Representative images of orthotopic EO771 tumors harvested on day 11 after treatment with XRT (top) or 2 mg/kg PPV followed by XRT (bottom). *P<0.05; **P<0.01; ***P<0.001; ****P<0.0001; n.s., not significant.
as §2
Tumor Growth kinetics. 2×10^6 EO771 or 5×10^6 A549 cells were injected s.c. into the flanks of 6-week old female immunocompetent C57/B6 (EO771) or immunocompromised nu/nu (A549) mice. Caliper measurements of opposing diameter were used to calculate the tumor volumes. Upon reaching […], the tumors were visualized by cone beam CT and treatment plans calculated using SARRP software. X-rays were delivered with a single beam delivering 5 Gy using the Small Animal Research Radiation Platform (SARRP, Xstrahl). Tumor volumes were measured until the post treatment volume increased 3-fold. Error bars represent standard deviation.
Both models of transplanted tumors that were used for the oxygenation experiments of papaverine's effect on radiation response in vivo were investigated. The murine breast cancer line EO771 that is syngeneic with the BL6 strain of mice was used and transplanted it orthotopically into the mammary fat pad of immune-competent mice. Also used was the human A549 lung adenocarcinoma line that was transplanted into the flank of immune-deficient mice. The breast cancers grew to approximately 150 mm^3 and were then randomized to receive either no treatment, a single dose of either 5 Gy, or papaverine at 2 mg/kg followed 30-40 minutes later by 5 Gy.

MP2 ODDluc tumors = experiment: ODD-luciferase in vivo oxygen reporter (bioluminescence imaging); set-up: species or system mice; details: MP2 ODDluc tumors, 2 and 6 hours after drug
Description: FIGS. 14A-14E summarize results obtained using ODD-luciferase as an in vivo oxygen reporter. […] (n=3-4, P<0.05).
Use of ODD-luciferase as an in vivo oxygen reporter. We have fused the oxygen dependent degradation domain (ODD) of the HIF1a protein to the luciferase reporter protein. This fusion protein is expressed in tumor cells and is stable and reports well in hypoxia, but is destroyed by cellular machinery when cells are well oxygenated (FIG. 14A). These cells were used to grow tumors in immune-deficient mice and the animals were exposed either 95% oxygen/5% CO2 (carbogen) or medical air and the tumor bioluminescence imaged by IVIS 30 minutes post injection. Increasing oxygen breathing decreases reporter signal (FIG. 14B). These animals were then treated with either papaverine or vehicle (FIG. 14C) or SMV32 or vehicle (FIG. 14E).

EO771 cells = format: cell-based, Murine; details: for competition with rotenone on OCR: PPV given before rotenone; for inhibition of oxygen consumption (OCR), effective concentration (words): real time Seahorse XF dose response
Experimental: Error bars represent standard deviation.
FIGS. 2A-2D are OCR measurements and cell viability assessments. FIG. 2A-2B are representative of OCR measurement in competition assay between PPV and complex I inhibitors piericidin A (FIG. 2A) and capsaicin (FIG. 2B). Values represent the means+−SD. […] Bar charts represent mean of viable cells in duplicates+−standard deviation.
Seahorse analysis of the OCR. Oxygen consumption rate (OCR) was measured using Seahorse XF96 Flux Analyzer (Agilent Technologies). The cells were seeded to attach overnight, wells were washed with pre-warmed XF Calibrant (Agilent Technologies) and the replaced with unbuffered Assay Medium (pH 7.4, 5 mM glucose, 1 mM L-glutamine). The plates were incubated at 37° C. in a CO2-free incubator for 2 hours prior to assay. For succinate rescue assay, cells were permeabilized using XF Plasma Membrane Permeabilizer Reagent (XF PMP, Agilent Technologies) according to the manufacturer's instructions. The OCR rate was measured in 1× Mitochondrial Assay Solution (MAS) (70 mM sucrose, 220 mM mannitol, 10 mM KH2PO4, 5 mM MgCl2, 2 mM Hepes, 0.6% (w/v) fatty acid-free BSA and 1 mM EGTA; pH 7.4). After baseline oxygenation was established, 1 μM rotenone or 10 μM PPV was injected at time A, followed by 5 mM succinate at time B. Error bars represent standard deviation. For the washout experiment, EO771 cells were seeded overnight, then treated with 10 μM PPV or 1 μM rotenone 3 hours prior to OCR measurement. Media was replaced 1 and 2 hours before measurement and OCR reported.

mitochondrial function = details: cited from earlier work
[3] = cited from earlier work

COc1cc2ccnc(Cc3cccc4ccccc34)c2cc1OC [SMV-32]
tumor hypoxia by pimonidazole staining (EO771 tumors [1]; orthotopic EO771, immune-competent mice, 2 mg per kg): decreased tumor hypoxia
IC50 (A549 cells; Homo sapiens, A549 cells by Seahorse, n=5 replicates, read-out: mitochondrial IC50 (OCR IC50)): 7.4 µM
growth delay compared to radiation alone (EO771 tumors [2]; heterotopic EO771 flank tumors, nude mice, 2 mg/kg 35 minutes prior to 5 Gy): activity that is comparable to papaverine
ODD-luciferase reporter signal (MP2 ODDluc tumors): significant decrease in signal

COc1ccc(Cc2nccc3cc(OC)c(OC)cc23)cc1OC [PPV, papaverine]
decrease in the hypoxic fraction of tumors (EO771 tumors [1]; 2 mg/kg PPV for one hour, pimonidazole): 72%
time for OCR to return to baseline after drug removal (washout) (A549 cells; 10 μM PPV, media replaced): less than one and one
dose needed relative to rotenone for similar OCR inhibition (A549 cells; dose response analysis, A549): 100 × higher dose than rotenone
effect of drug before radiation on tumor growth delay (words) (EO771 tumors [2]): significantly adds to tumor growth delay
effect of drug before radiation on tumor growth delay (words) (EO771 tumors [2]; listed as papaverine): significantly enhanced the antitumor effects of the radiation
enhancement of tumor growth delay over XRT alone (EO771 tumors [2]): 2-4 fold
enhancement of tumor growth delay over XRT alone (EO771 tumors [2]; listed as papaverine): 1.9-2.8 fold
effect of single dose of drug alone on tumor growth (EO771 tumors [2]; orthotopic EO771, 2 mg/kg, no XRT): no significant effect
ODD-luciferase reporter signal (MP2 ODDluc tumors): significant decrease in signal
efficiency at rotenone binding pocket relative to rotenone (EO771 cells): approximately 100 × lower efficiency
competition with rotenone on OCR (EO771 cells): block the activity of the classical complex 1 inhibitor rotenone
competition with rotenone on OCR (EO771 cells; listed as papaverine): blocked rotenone's inhibitory activity
interaction with complex 1 inhibitors piericidin A or capsaicin (EO771 cells; competition assay): no interaction
inhibition of oxygen consumption (OCR), effective concentration (words) (EO771 cells): effective at low micromolar concentrations
inhibition of oxygen consumption (OCR), effective concentration (words) (EO771 cells; listed as Papaverine): rapidly inhibited oxygen consumption at low micromolar concentrations
growth of cells in media containing only galactose (mitochondrial function): slow the growth of cells
expected half-life ([3]; Ritschel et al.): 1.5 to 2 h
half-life, cleared from the serum ([3]; in vivo): 1.5 to 2 h
